# Counter-ions that a name gives are not always drawn. Like-named read-outs stand apart in the source and are kept apart here.
# Experiments:
# Format in all cases: biochemical
# [1] = target: T1, α-L-Fucosidase (Bovine kidney) (Bos taurus, UniProt Q2KIM0); assay: α-L-Fucosidase (bovine kidney) inhibition
# T1 construct: purchased Sigma-Aldrich Chemical Co; host or cells: bovine kidney
# T1 sequence (Q2KIM0 23-468): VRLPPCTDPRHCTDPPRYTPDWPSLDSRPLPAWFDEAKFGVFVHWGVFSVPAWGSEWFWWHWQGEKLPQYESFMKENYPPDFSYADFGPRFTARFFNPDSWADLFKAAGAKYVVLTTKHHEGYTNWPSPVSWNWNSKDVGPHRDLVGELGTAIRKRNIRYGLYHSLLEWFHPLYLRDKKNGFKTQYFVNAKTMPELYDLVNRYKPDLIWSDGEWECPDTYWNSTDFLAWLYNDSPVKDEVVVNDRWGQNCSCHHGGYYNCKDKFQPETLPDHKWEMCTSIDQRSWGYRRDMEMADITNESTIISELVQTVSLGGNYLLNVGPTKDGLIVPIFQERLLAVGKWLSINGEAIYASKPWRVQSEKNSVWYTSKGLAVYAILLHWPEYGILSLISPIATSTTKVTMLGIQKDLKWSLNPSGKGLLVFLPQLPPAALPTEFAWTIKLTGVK
# Experimental: (§1) With rat intestinal maltase as an exception, other enzymes were purchased from Sigma-Aldrich Chemical Co. (St. Louis, MO, USA). Brush border membranes prepared from rat small intestine according to the method of Kessler et al. were assayed at pH 6.8 for rat intestinal maltase using maltose. The released D-glucose was determined colorimetrically using the Glucose CII-test Wako (Wako Pure Chemical Ind.; Osaka, Japan). Other glycosidase activities were determined using an appropriate p-nitrophenyl glycoside as substrate in a buffer solution at the optimal pH value of each enzyme. The reaction was stopped by adding 400 mM Na2CO3. The released p-nitrophenol was measured spectrometrically at 400 nm.
# β-Mannosidase (Snail) = assay: β-Mannosidase (snail) inhibition
# Experimental: as §1
# [2] = target: T2, α-Galactosidase (Coffee beans) (Coffea arabica, UniProt Q42656); assay: α-Galactosidase (coffee beans) inhibition
# T2 construct: purchased Sigma-Aldrich Chemical Co
# T2 sequence (Q42656 16-378): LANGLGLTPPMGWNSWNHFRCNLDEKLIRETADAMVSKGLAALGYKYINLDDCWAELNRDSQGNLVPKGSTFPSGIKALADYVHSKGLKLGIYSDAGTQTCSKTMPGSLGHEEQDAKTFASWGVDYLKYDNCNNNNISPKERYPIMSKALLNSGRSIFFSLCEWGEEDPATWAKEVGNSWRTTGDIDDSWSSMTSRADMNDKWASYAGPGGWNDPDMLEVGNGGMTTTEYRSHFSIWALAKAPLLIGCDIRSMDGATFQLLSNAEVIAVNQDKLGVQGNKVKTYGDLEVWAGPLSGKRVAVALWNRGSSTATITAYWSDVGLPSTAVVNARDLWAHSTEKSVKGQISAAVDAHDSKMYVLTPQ
# Experimental: as §1
# [3] = target: T3, β-Galactosidase (Bovine liver) (Bos taurus, UniProt F1MNT6); assay: β-Galactosidase (bovine liver) inhibition
# T3 sequence (F1MNT6 1-469): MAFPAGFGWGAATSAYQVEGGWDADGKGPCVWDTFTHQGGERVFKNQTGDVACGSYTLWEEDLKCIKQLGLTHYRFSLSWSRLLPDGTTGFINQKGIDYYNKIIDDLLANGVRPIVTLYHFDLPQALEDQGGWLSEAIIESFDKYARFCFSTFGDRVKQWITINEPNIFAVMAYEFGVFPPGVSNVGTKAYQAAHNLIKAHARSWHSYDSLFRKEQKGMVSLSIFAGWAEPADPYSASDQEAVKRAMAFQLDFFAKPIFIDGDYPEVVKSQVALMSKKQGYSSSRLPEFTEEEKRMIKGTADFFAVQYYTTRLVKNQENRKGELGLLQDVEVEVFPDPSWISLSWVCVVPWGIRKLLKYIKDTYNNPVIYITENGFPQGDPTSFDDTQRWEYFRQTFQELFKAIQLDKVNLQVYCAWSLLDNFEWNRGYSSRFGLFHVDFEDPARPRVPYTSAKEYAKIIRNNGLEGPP
# Experimental: as §1
# β-Glucosidase (Almond) = assay: β-Glucosidase (almond) inhibition
# Experimental: as §1
# [4] = target: β-N-Acetylgalactosaminidase (HL60); assay: β-N-Acetylgalactosaminidase (HL60) inhibition
# Experimental: as §1
# [5] = target: T4, Amyloglucosidase (A. niger) (Aspergillus niger, UniProt P69328); assay: Amyloglucosidase (A. niger) inhibition
# T4 construct: purchased Sigma-Aldrich Chemical Co
# T4 sequence (P69328 25-640): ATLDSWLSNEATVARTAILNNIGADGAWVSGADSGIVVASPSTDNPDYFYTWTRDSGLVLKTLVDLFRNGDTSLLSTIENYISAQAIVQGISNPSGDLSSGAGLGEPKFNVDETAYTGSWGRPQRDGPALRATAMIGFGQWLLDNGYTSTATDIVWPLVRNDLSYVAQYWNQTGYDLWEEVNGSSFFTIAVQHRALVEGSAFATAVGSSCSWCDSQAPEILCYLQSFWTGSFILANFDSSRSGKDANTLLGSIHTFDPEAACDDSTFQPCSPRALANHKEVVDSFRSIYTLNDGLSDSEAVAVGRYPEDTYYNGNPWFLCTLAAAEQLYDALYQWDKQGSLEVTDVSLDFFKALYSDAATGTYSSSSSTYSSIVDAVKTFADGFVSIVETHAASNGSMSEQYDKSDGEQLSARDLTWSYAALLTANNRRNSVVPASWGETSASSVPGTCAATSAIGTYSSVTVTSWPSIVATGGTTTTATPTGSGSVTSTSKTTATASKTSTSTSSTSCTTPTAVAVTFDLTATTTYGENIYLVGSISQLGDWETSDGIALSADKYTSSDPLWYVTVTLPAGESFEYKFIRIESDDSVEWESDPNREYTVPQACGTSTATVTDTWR
# Experimental: as §1
# [6] = target: β-N-Acetylhexosaminidase (Jack bean); assay: β-N-Acetylhexosaminidase (Jack bean) inhibition; details: for IC50: β-N-Acetylhexosaminidase (β-GlcNAcase)
# Experimental: as §1
# α-Glucosidase (Yeast) = α-Glucosidase (Yeast) (Saccharomyces cerevisiae, UniProt P53341); assay: α-Glucosidase (yeast) inhibition
# Chain of α-Glucosidase (Yeast) (P53341 whole entry): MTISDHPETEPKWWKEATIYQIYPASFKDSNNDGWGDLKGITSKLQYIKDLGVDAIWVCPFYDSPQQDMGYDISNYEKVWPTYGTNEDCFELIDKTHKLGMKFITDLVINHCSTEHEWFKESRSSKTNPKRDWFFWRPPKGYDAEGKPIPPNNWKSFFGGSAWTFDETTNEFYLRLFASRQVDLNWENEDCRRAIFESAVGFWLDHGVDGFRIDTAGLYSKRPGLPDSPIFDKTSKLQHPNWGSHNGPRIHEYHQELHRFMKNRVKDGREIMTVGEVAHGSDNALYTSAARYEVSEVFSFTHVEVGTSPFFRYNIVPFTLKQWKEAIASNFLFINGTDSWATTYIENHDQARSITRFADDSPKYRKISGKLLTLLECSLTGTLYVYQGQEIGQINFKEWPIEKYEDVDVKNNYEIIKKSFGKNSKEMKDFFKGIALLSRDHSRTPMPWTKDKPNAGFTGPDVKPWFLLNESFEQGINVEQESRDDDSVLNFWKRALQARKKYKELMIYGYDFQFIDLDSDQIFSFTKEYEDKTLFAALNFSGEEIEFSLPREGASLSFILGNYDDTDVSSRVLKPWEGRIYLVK
# Experimental: as §1
# [7] = target: β-N-Acetylhexosaminidase (Bovine liver); assay: β-N-Acetylhexosaminidase (bovine liver) inhibition; details: for IC50: β-N-Acetylhexosaminidase (β-GlcNAcase); for Inhibition % at 1000 μM: β-N-Acetylhexosaminidase
# Experimental: as §1
# α-Glucosidase (Rice) = target: T5, α-Glucosidase (Rice) (Oryza sativa subsp. japonica, UniProt Q653V7); assay: α-Glucosidase (rice) inhibition
# T5 construct: purchased Sigma-Aldrich Chemical Co
# T5 sequence (Q653V7 34-885): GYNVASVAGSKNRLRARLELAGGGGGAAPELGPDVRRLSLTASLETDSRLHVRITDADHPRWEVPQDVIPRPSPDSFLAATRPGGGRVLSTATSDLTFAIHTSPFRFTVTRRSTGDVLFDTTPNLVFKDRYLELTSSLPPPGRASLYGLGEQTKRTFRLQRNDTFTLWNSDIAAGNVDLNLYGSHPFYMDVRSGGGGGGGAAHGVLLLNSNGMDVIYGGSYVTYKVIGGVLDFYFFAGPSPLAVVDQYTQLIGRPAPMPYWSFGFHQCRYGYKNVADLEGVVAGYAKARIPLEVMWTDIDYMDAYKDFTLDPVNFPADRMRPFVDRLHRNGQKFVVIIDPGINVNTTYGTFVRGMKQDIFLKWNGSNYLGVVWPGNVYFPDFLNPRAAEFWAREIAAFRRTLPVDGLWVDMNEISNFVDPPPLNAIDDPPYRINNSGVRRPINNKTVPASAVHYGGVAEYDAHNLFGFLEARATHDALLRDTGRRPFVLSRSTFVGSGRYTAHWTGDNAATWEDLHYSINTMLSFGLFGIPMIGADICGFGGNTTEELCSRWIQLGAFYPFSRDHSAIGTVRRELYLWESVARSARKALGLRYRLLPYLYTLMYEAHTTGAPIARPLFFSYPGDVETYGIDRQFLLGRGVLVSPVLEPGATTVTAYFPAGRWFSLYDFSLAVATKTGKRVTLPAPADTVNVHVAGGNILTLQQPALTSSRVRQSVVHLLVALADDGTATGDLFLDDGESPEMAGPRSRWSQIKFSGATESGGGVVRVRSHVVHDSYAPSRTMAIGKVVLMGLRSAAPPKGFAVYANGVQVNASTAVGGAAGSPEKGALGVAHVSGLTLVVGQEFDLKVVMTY
# Experimental: as §1
# [8] = target: α-L-Rhamnosidase (P. decumbens); assay: α-L-Rhamnosidase (P. decumbens) inhibition
# Experimental: as §1
# [9] = target: β-N-Acetylhexosaminidase (HL60); assay: β-N-Acetylhexosaminidase (HL60) inhibition; details: for IC50: β-N-Acetylhexosaminidase (β-GlcNAcase); for Inhibition % at 1000 μM: β-N-Acetylhexosaminidase
# Experimental: as §1
# [10] = target: T6, β-Glucuronidase (E. coli) (Escherichia coli, UniProt P05804); assay: β-Glucuronidase (E. coli) inhibition
# T6 construct: purchased Sigma-Aldrich Chemical Co
# T6 sequence (P05804 whole entry): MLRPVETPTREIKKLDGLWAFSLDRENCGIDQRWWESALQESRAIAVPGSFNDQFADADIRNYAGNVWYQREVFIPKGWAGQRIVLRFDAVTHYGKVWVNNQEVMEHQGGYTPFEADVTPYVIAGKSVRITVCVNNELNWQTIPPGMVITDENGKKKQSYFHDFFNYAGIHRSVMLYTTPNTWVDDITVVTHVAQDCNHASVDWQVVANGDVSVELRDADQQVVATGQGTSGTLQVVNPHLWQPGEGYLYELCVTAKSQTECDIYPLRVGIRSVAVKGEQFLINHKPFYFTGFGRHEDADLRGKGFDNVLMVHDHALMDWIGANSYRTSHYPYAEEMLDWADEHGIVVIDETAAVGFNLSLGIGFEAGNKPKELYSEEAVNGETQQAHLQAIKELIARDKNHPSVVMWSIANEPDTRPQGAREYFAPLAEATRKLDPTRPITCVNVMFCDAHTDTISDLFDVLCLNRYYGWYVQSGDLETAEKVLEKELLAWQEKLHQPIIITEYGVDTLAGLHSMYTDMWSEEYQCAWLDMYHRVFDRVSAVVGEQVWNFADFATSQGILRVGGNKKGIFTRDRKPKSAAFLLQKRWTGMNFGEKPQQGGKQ
# Experimental: as §1
# [11] = target: T7, β-Glucuronidase (Bovine liver) (Bos taurus, UniProt A3KMY8); assay: β-Glucuronidase (bovine liver) inhibition
# T7 construct: purchased Sigma-Aldrich Chemical Co; host or cells: bovine liver
# T7 sequence (A3KMY8 1-652): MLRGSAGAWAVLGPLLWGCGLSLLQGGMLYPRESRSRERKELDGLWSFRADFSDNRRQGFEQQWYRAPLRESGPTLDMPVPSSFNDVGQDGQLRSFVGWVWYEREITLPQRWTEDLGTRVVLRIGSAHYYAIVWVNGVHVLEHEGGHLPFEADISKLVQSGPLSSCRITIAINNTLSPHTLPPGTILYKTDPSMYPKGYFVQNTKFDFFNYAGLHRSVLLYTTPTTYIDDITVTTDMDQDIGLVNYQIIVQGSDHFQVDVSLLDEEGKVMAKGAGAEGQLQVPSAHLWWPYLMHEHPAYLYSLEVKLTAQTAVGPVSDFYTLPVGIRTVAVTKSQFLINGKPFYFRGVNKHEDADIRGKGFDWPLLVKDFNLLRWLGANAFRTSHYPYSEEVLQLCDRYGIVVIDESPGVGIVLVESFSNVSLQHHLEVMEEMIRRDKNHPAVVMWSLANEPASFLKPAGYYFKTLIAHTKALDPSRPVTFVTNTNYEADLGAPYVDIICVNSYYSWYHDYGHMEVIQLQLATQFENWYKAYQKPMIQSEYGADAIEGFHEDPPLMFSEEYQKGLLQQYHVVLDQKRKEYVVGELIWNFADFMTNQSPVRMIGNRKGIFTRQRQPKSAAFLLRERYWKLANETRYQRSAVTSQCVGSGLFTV
# Experimental: as §1
# [12] = target: β-Glucosidase (Bovine liver); assay: β-Glucosidase (bovine liver) inhibition
# Experimental: as §1
# [13] = 1000 μM, read-out: Inhibition % at 1000 μM
# [14] = read-out: Inhibition % at 1000 μM
Structure (SMILES),"inhibition at 1000 µM [1, 13] [%]",inhibition at 1000 µM ([1]; read-out: IC50) [%],IC50 (β-Mannosidase (Snail)),Inhibition % at 1000 μM (β-Mannosidase (Snail)) [%],"inhibition at 1000 µM [2, 13] [%]",inhibition at 1000 µM ([2]; read-out: IC50) [%],"inhibition at 1000 µM [3, 13] [%]",inhibition at 1000 µM ([3]; read-out: IC50) [%],IC50 (β-Glucosidase (Almond)),Inhibition % at 1000 μM (β-Glucosidase (Almond)) [%],IC50 [4],Inhibition % at 1000 μM [4] [%],"inhibition at 1000 µM [5, 13] [%]",inhibition at 1000 µM ([5]; read-out: IC50) [%],inhibition at 1000 µM (α-Glucosidase (Yeast); [14]) [%],IC50 [7],Inhibition % at 1000 μM [7] [%],inhibition at 1000 µM (α-Glucosidase (Rice); [13]) [%],inhibition at 1000 µM (α-Glucosidase (Rice); read-out: IC50) [%],IC50 [8],other results
"CC(=O)NC[C@@H]1N[C@@H](CO)[C@@H](O)[C@@H]1O [E-10b, 1-N-acetylamino-2,5-imino-1,2,5-trideoxy-L-iditol hydrochloride]",20.5,< 50,NI (No Inhibition (less than 50% at 1000 μM)),0,0,< 50,3.9,< 50,NI (No Inhibition (less than 50% at 1000 μM)),1.2,NI (No Inhibition (less than 50% at 1000 μM)),10.1,6.4,< 50,0,NI (No Inhibition (less than 50% at 1000 μM)),38.4,0,< 50,NI (No Inhibition (less than 50% at 1000 μM)),"IC50 ([6]; read-out: IC50): 115 µM; inhibition at 1000 µM (α-Glucosidase (Yeast); α-Glucosidase, Yeast, read-out: IC50): < 50%; Inhibition % at 1000 μM [8]: 30.8%; IC50 [9]: NI (No Inhibition (less than 50% at 1000 μM)); Inhibition % at 1000 μM [9]: 4.5%; inhibition at 1000 µM [10, 13]: 0%; inhibition at 1000 µM ([10]; read-out: IC50): < 50%; inhibition at 1000 µM [11, 13]: 4.3%; inhibition at 1000 µM ([11]; read-out: IC50): < 50%; IC50 [12]: NI (No Inhibition (less than 50% at 1000 μM)); Inhibition % at 1000 μM [12]: 0%"
"CC(=O)NC[C@@H]1N[C@H](CO)[C@H](O)[C@H]1O [F-10a, 1-N-acetylamino-2,5-imino-1,2,5-trideoxy-L-glucitol hydrochloride]",8.4,< 50,NI (No Inhibition (less than 50% at 1000 μM)),3.23,0.36,< 50,4.2,< 50,NI (No Inhibition (less than 50% at 1000 μM)),11.6,NI (No Inhibition (less than 50% at 1000 μM)),0.9,2.8,< 50,6.91,NI (No Inhibition (less than 50% at 1000 μM)),23.2,12.5,< 50,NI (No Inhibition (less than 50% at 1000 μM)),"IC50 [6]: NI (No Inhibition (less than 50% at 1000 μM)); Inhibition % at 1000 μM ([6]; β-N-Acetylhexosaminidase, 1000 μM): 42%; inhibition at 1000 µM (α-Glucosidase (Yeast); read-out: IC50): < 50%; Inhibition % at 1000 μM [8]: 5.3%; IC50 [9]: NI (No Inhibition (less than 50% at 1000 μM)); Inhibition % at 1000 μM [9]: 0%; inhibition at 1000 µM [10, 13]: 0%; inhibition at 1000 µM ([10]; read-out: IC50): < 50%; inhibition at 1000 µM [11, 13]: 0%; inhibition at 1000 µM ([11]; read-out: IC50): < 50%; IC50 [12]: NI (No Inhibition (less than 50% at 1000 μM)); Inhibition % at 1000 μM [12]: 0.3%"
